These results are taken from a melting point compilation (Tetko et al.; mined from patent text by program, amines drawn as free bases though some values may be those of a salt).

As a reminder, the melting point is the temperature, or range, at which the solid turns liquid.

Each structure is given as a SMILES string.

The molecule `CC(C)CCC(=O)N[C@@H]1N=C(c2ccccc2)c2ccccc2N(C)C1=O` displayed a melting point of 123 to 125 °C.
Next, `O=C(O)c1cccc(-c2nc3cc(N4CCCC4=O)ccc3o2)c1`: 190 to 192 °C; `COC(=O)c1ccccc1NC(=O)C=C(c1ccc(Cl)cc1)c1ccc(Cl)cc1`: 141 to 143 °C; `CC(C)(C)c1ccc(-c2nn3c(=O)c([N+](=O)[O-])c(Cl)nc3s2)cc1`: 245 to 248 °C.
Under `Cc1nc(Br)sc1C(=O)NCc1ccccc1` stands 92 to 94 °C.
Next, `N#CCCc1ccc(C(=O)O)cc1`: 182 °C; `CCOC(=O)NC(=N)NCCSCc1[nH]cnc1C`: 196 to 197 °C.
Regarding `O=C1NC(=S)SC1=Cc1cc(Cl)c2c(c1)N(CCc1ccc(C(F)(F)F)cc1)C(=O)CO2`, the melting point lay in the range of 275 to 277 °C.
Regarding `COc1ccc2c(c1)CCc1c(C#N)cccc1S2`, the melting point fell in the range of 129 to 130 °C.
Under `CN(C)C1(c2ccccc2)CCC(CNC(=O)N2CCC(c3c[nH]c4ccccc34)CC2)CC1` (centres undefined) stands 104 to 107 °C.
Under `O=C(O)CN1CCC(n2nc(-c3c(-c4ccccc4)nn4ccccc34)ccc2=O)C1=O` (centres undefined) stands 250 to 251 °C; under `CC(=O)NC1CCN(Cc2cnc3cc(NC(=O)c4ccc(-c5ccc(Cl)cc5)cc4)ccc3c2)C1` (centres undefined), over 285 °C; under `O=S1(=O)NCN(CCF)c2ccc(I)cc21`, 156 to 158 °C.
Consider `FC(F)c1nc2ccccc2n1-c1nc(NCc2ccccc2)nc(N2CCOCC2)n1`, for which the melting point is 185 to 188 °C.
Next, `CC(=O)c1cn2c3c(cccc13)CCC2`: 106 to 108 °C; `O=C(NC1CCN(CCCCl)CC1)c1ccccc1`: 145 to 147 °C; `CC(C)(C)c1cc(P(c2ccccc2)c2cc(C(C)(C)C)c(O)c(C(C)(C)C)c2)cc(C(C)(C)C)c1O`: 138 to 140 °C.
Turning to `COc1ccc2c(c1)-c1cc(OC)ccc1C2=O`, the melting point was 123 to 125 °C.
The molecule `C=CCN1CCN(c2ncc3c(=O)c(C(=O)OCC)cn(CC)c3n2)CC1` yielded a melting point of 131 °C.
Molecule `CCOC(=O)Cc1c(C(=O)OCC)[nH]c2ccc(F)cc12` returned a melting point of 128 to 130 °C.
Next, `COc1ccc(NC(=O)CBr)c([N+](=O)[O-])c1`: 94 to 98 °C; `CCOC(=O)COc1cc2c(cc1Cl)C(=O)CC1(CCCCC1)O2`: 116 to 117 °C.
For `CCOC(=O)Cc1cn(-c2ncnc3ccccc23)c2ccccc12`, the melting point was in the range of 65 to 67 °C.
Next, `Cc1ccc(NC(=O)c2ccc(CN(C)C)c(C(F)(F)F)c2)cc1-c1ccc2cnncc2c1`: 240 to 241 °C; `CCOc1ccc(O)c(CC(=O)OC)c1`: 83 to 84 °C; `CN1C(=O)[C@H](NC(=O)/C=C/c2ccc(Br)cc2)N=C(c2ccccc2)c2ccccc21`: 121 to 124 °C.
Next, `Cc1ccc(C(=O)C(=C2NCCCS2)[N+](=O)[O-])cc1`: 141 to 143 °C.
For the molecule `O=c1ccccn1C1=CC(CF)(CF)Oc2ccc(C(F)(F)F)cc21`, the melting point lay within 139 to 140 °C.
Under `CC(C)(C)OC(=O)N[C@@H](Cc1ccc(OCc2ccccc2)cc1)C(=O)NCCN1CCCCC1` stands 54 to 61 °C; under `COc1cc(N)c(Cl)cc1C(=O)N[C@@H]1CCN(CCCC(=O)N2CCCC2)C[C@H]1O` (relative stereo), 175 °C.
Under `COC(=O)c1ccc(C(=O)N[C@@H]2CCCC[C@@H]2c2ccc(OC)c(OC)c2)cc1` stands 154 to 156 °C; under `COc1cc(C=CC=O)ccc1OC(C)c1nc(-c2ccccc2)oc1C` (centres undefined), 152 to 153 °C.
Under `COc1cc2c(cc1[N+](=O)[O-])CCN(CCCCl)C(=O)C2` stands 127 to 128 °C.
In turn, `N=C(N)Nc1ncc(CSCCN)s1` showed a melting point of 150 to 153 °C.
Next, `CS(=O)(=O)c1ccc(-c2n[nH]c(=O)cc2-c2ccc(Cl)cc2)cc1`: 254 to 255 °C.
For the molecule `CCCCCCCNC(=O)Nc1cc(N(C)C)ccc1C(=O)NC1CCN(C(c2ccccc2)c2ccccc2)CC1`, the melting point is 87 °C.
Next, `O=c1[nH]cnc2cc[nH]c12`: over 300 °C; `COc1cccc(NC(=O)c2cc(C#N)cc(C)n2)c1`: 189 °C; `CC(C)(C)OC(=O)NC(C)(C)c1ccc(-c2ccno2)cc1`: 145 to 146 °C.
Take `C=CCNC(=O)n1nc(NC)n(C)c1=O`: the melting point was 136 to 137 °C.
Next, `Cc1cc2c(NCc3ccc4c(c3)OCO4)nc(Cl)nc2s1`: 162 °C; `CN1CC=C(c2c[nH]c3ccc(NC(=O)c4ccccc4)cc23)CC1`: over 250 °C; `COc1cc2c(cc1OC)C(COCCN1CCCCC1)OCCC2` (centres undefined): 124 °C.
Under `CC(C)NCCOc1ccc(-c2nc3ccccc3c(=O)[nH]2)nc1-c1ccc(S(C)(=O)=O)cc1` stands 188 to 189 °C; under `COCc1cnc(N)nc1N`, 171 to 174 °C; under `c1cc2c(s1)CCCCN2`, 55 to 57 °C.
Next, `C[C@H]1N(C(=O)c2ccc(OCC(F)(F)C(F)F)cc2)CC(=O)O[C@@]1(Cn1cncn1)c1ccc(F)cc1F` (relative stereo): 78 to 83 °C; `O=C(O)C(O)c1cccc(OCc2ccccc2Cl)c1OCc1ccccc1Cl` (centres undefined): 98 to 100 °C.
For `COC(=O)CCCc1cc2nc(Cl)ccc2n1S(=O)(=O)c1cccc(-c2nccs2)c1`, the melting point was in the range of 82 to 86 °C.
Take `CCOP(=O)(Cc1ccc(C(=O)O)cc1)OCC`: the melting point lay within 117 to 120 °C.
`CCN(CC)c1ccc(C(=O)C#Cc2ccncc2)cc1` yielded a melting point of 85 to 87 °C.
The molecule `CC(=O)c1ccsc1S(N)(=O)=O` gave a melting point of 193 to 196 °C.
Molecule `C/C(=C(\C#N)C(N)=S)N1CCCN(c2ccccc2Cl)CC1` registered a melting point of 123 to 124 °C.
Next, `O=C(NCCO)c1cccc(-c2ccc3ccn(Cc4ccc(Cl)cc4Cl)c3c2)c1`: 124 to 125 °C.
Under `CN(C)C(=N[N+](=O)[O-])N(Cc1cnc(Cl)s1)S(C)(=O)=O` stands 82 to 86 °C.
Under `CCCCCCCNC(=O)Nc1ccc(N(C)C)cc1C(=O)N(CC1CCN(C(c2ccccc2)c2ccccc2)CC1)N(C)C` stands 178 to 179 °C.
Consider `CON(C)Cc1nc2c(N)nc3ccccc3c2n1CC(C)(C)O`, for which the melting point lay within 220 to 222 °C.
For `O=C(CSc1ncccn1)NC/C=C\COc1cc(CN2CCCCC2)ccn1`, the melting point was in the range of 103 to 106 °C.
Next, `Cc1c(NC(=O)CC(C)(C)C)c(C)c2c(c1-c1cccc(F)c1)OCC2c1ccc(C(C)C)cc1` (centres undefined): 182 to 183 °C; `CN1c2cc(Cl)ccc2-c2nc3ccc(Cl)cc3c3cccc1c23`: 273 to 275 °C.
Under `O=C(O)CCc1cc(Br)c(OC(=O)c2c3ccccc3nc3ccccc23)c(Br)c1` stands 240 to 242 °C; under `O=C(Nc1ccc(I)cc1)c1ccncc1`, 245 to 250 °C.
Next, `CC(C)(C)[Si](Oc1ccc(OCC2CO2)cc1)(c1ccccc1)c1ccccc1` (centres undefined): 97 to 98 °C; `CC(C)NC(=O)N1CCc2[nH]cnc2C1C1CCCCC1` (centres undefined): 254 °C.
